Where two headings read alike, the source gives them in different places.
Experiments:
Assay in all cases: Ras GTP binding domain inhibition assay (Cy3-GTP/Cy5-GTP competition)
KRas Q61H mutant = test system: KRas Q61H mutant; design: species or system human; details: 20 μM; for KRas Q61H mutant + SOS: % inh.: with SOS; for KRas Q61H mutant: % inh.: without SOS
Outline: (§1)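 His-tagged Ras proteins were captured on nickel-coated wells in Buffer-I (25 mM Tris-HCl pH 7.4, 27 mM KCl, 137 mM NaCl, 1 mM MgCl2, 1 mM DTT) or Buffer-II (50 mM Tris-HCl pH 7.0). Compounds (20 μM or serial dilution, 1% DMSO) were incubated 3 h at RT, ±Sos(556-1049) in the final hour. Bound Cy3-/Cy5-GTP (100 nM, 45 min) was read after washing.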

KRas wild type = test system: KRas wild type; design: species or system human; details: 20 μM; for KRas wild type + SOS: % inh.: with SOS; for KRas wild type: % inh.: without SOS
Outline: as §1

KRas G12C mutant = test system: KRas G12C mutant; design: species or system human; details: 20 μM; for KRas G12C mutant + SOS: % inh.: with SOS; for KRas G12C mutant: % inh.: without SOS
Outline: as §1

KRas G12D mutant = biological target: T1, KRas G12D mutant (Homo sapiens, UniProt P01116, G12D); details: 20 μM
T1 construct: fused on or other part: His tag, used for capture on nickel-coated plates
Outline: as §1

[1] = with SOS, read-out: KRas G-12D mutant + SOS: % inh.
[2] = without SOS, read-out: KRas G12D mutant: % inh.

Row | SMILES | KRas Q61H mutant + SOS: % inh. (KRas Q61H mutant) | KRas Q61H mutant: % inh. (KRas Q61H mutant) | KRas wild type + SOS: % inh. (KRas wild type) | KRas wild type: % inh. (KRas wild type) | KRas G12C mutant + SOS: % inh. (KRas G12C mutant) | KRas G12C mutant: % inh. (KRas G12C mutant) | inhibition at 20 µM (KRas G12D mutant; [1]) [%] | inhibition at 20 µM (KRas G12D mutant; [2]) [%]
1 | CO[C@H]1CCC(Nc2nc(-c3nccn3C)nc3sc(-c4ccn(C)n4)c(-c4ccccc4)c23)C1 (some centres unmarked) [drawing 860] | D (76-100% inhibition) | B (26-50% inhibition) | D (76-100% inhibition) | B (26-50% inhibition) | D (76-100% inhibition) | B (26-50% inhibition) | 51 to 75 | 26 to 50
2 | Cn1ccc(-c2sc3nc(-c4nccn4C)nc(NCC4CCOC4)c3c2-c2ccccc2)n1 (centres unmarked) [drawing 861] | C (51-75% inhibition) | B (26-50% inhibition) | B (26-50% inhibition) | 0 (0% inhibition) | C (51-75% inhibition) | 0 (0% inhibition) | 1 to 25 | 26 to 50
3 | Cn1ccc(-c2sc3nc(-c4nccn4C)nc(NC4CCOCC4)c3c2-c2ccccc2)n1 [drawing 862] | B (26-50% inhibition) | B (26-50% inhibition) | B (26-50% inhibition) | B (26-50% inhibition) | A (1-25% inhibition) | 0 (0% inhibition) | 1 to 25 | 1 to 25
4 | COC1CCN(c2nc(-c3nccn3C)nc3sc(-c4ccn(C)n4)c(-c4ccccc4)c23)C1 (centres unmarked) [drawing 863] | C (51-75% inhibition) | B (26-50% inhibition) | B (26-50% inhibition) | A (1-25% inhibition) | B (26-50% inhibition) | A (1-25% inhibition) | 1 to 25 | 1 to 25
5 | COCC(C)Nc1nc(-c2nccn2C)nc2sc(-c3ccn(C)n3)c(-c3ccccc3)c12 (centres unmarked) [drawing 864] | C (51-75% inhibition) | 0 (0% inhibition) | C (51-75% inhibition) | 0 (0% inhibition) | C (51-75% inhibition) | 0 (0% inhibition) | 26 to 50 | 1 to 25
6 | COCCCN(C)c1nc(-c2nccn2C)nc2sc(-c3ccn(C)n3)c(-c3ccccc3)c12 [drawing 865] | B (26-50% inhibition) | A (1-25% inhibition) | B (26-50% inhibition) | A (1-25% inhibition) | B (26-50% inhibition) | A (1-25% inhibition) | 26 to 50 | 51 to 75
7 | COCCCNc1nc(-c2nccn2C)nc2sc(-c3ccn(C)n3)c(-c3ccccc3)c12 [drawing 866] | B (26-50% inhibition) | B (26-50% inhibition) | C (51-75% inhibition) | C (51-75% inhibition) | B (26-50% inhibition) | A (1-25% inhibition) | 26 to 50 | 1 to 25
8 | COc1cccc(-c2sc3nc(-c4nccn4C)nc(N4CCC(OC)C4)c3c2-c2cscn2)c1 (centres unmarked) [drawing 867] | D (76-100% inhibition) | A (1-25% inhibition) | D (76-100% inhibition) | A (1-25% inhibition) | D (76-100% inhibition) | 0 (0% inhibition) | 51 to 75 | 1 to 25
9 | COc1ccc(-c2c(-c3ccn(C)n3)sc3nc(-c4nccn4C)nc(N4CCC(OC)C4)c23)cc1 (centres unmarked) [drawing 868] | B (26-50% inhibition) | A (1-25% inhibition) | A (1-25% inhibition) | 0 (0% inhibition) | A (1-25% inhibition) | 0 (0% inhibition) | 1 to 25 | 0
10 | COCC(C)Nc1nc(-c2nccn2C)nc2sc(-c3ccn(C)n3)c(-c3ccc(OC)cc3)c12 (centres unmarked) [drawing 869] | A (1-25% inhibition) | A (1-25% inhibition) | A (1-25% inhibition) | A (1-25% inhibition) | A (1-25% inhibition) | 0 (0% inhibition) | 1 to 25 | 0
11 | COCCCNc1nc(-c2nccn2C)nc2sc(-c3ccn(C)n3)c(-c3ccc(OC)cc3)c12 [drawing 870] | A (1-25% inhibition) | A (1-25% inhibition) | 0 (0% inhibition) | A (1-25% inhibition) | A (1-25% inhibition) | 0 (0% inhibition) | 1 to 25 | 0
12 | COCCNc1nc(-c2nccn2C)nc2sc(-c3cc(OC)ccc3Cl)c(-c3ccccc3)c12 [drawing 871] | A (1-25% inhibition) | C (51-75% inhibition) | A (1-25% inhibition) | B (26-50% inhibition) | A (1-25% inhibition) | 0 (0% inhibition) | 1 to 25 | 26 to 50
13 | COCCNc1nc(-c2nccn2C)nc2sc(-c3cccc(OC)c3Cl)c(-c3ccccc3)c12 [drawing 872] | D (76-100% inhibition) | B (26-50% inhibition) | D (76-100% inhibition) | B (26-50% inhibition) | D (76-100% inhibition) | C (51-75% inhibition) | 76 to 100 | 1 to 25
14 | COCCNc1nc(-c2cn(C)cn2)nc2sc(-c3ccccc3Cl)c(-c3ccc(OC)cc3)c12 [drawing 873] | D (76-100% inhibition) | B (26-50% inhibition) | D (76-100% inhibition) | A (1-25% inhibition) | D (76-100% inhibition) | C (51-75% inhibition) | 76 to 100 | 26 to 50
15 | COCCNc1nc(-c2nccn2C)nc2sc(-c3cccc(OC)c3Cl)c(-c3ccc(OC)cc3)c12 [drawing 874] | D (76-100% inhibition) | A (1-25% inhibition) | D (76-100% inhibition) | B (26-50% inhibition) | D (76-100% inhibition) | B (26-50% inhibition) | 51 to 75 | 1 to 25
16 | COCCNc1nc(-c2nccn2C)nc2sc(-c3cccc(OC)c3)c(-c3ccc(OC)cc3)c12 [drawing 875] | D (76-100% inhibition) | B (26-50% inhibition) | D (76-100% inhibition) | B (26-50% inhibition) | D (76-100% inhibition) | C (51-75% inhibition) | 76 to 100 | 51 to 75
17 | COCCNc1nc(-c2nccn2C)nc2sc(-c3ccccc3Cl)c(-c3ccc(OC)cc3)c12 [drawing 876] | D (76-100% inhibition) | B (26-50% inhibition) | D (76-100% inhibition) | B (26-50% inhibition) | D (76-100% inhibition) | B (26-50% inhibition) | 76 to 100 | 26 to 50
18 | COCCNc1nc(-c2nccn2C)nc2sc(-c3cc(OC)ccc3Cl)c(-c3ccc(OC)cc3)c12 [drawing 877] | D (76-100% inhibition) | A (1-25% inhibition) | D (76-100% inhibition) | A (1-25% inhibition) | C (51-75% inhibition) | A (1-25% inhibition) | 26 to 50 | 1 to 25
19 | COc1cccc(-c2csc3c(O)nc(-c4nccn4C)nc23)c1Cl [drawing 878] | A (1-25% inhibition) | A (1-25% inhibition) | A (1-25% inhibition) | A (1-25% inhibition) | A (1-25% inhibition) | A (1-25% inhibition) | 1 to 25 | 1 to 25
